Measurements from US6066633A, “Metalloproteinase inhibitors” (Adir et Compagnie, priority 1997, dated 2000).
Where a name gives a salt, the structure may show the parent alone.

How the values were obtained:
[1] = tested on: neovascularisation (pseudo-vessels) from portions of thoracic aorta; experiment: In Vitro Angiogenesis (thoracic aorta portions in type I collagen gel); assay type: cell-based, male Fischer 344 rats; conditions: Rattus norvegicus, 120 h, five days of culture in a medium without serum, vascular density
Excerpt: Portions of thoracic aorta of male Fischer 344 rats aged from 8 to 12 weeks are immersed in a type I collagen gel according to the method of Nicosia et Ottinetti (1990). After five days of culture in a medium without serum, the preparations are examined using a microscope and the formation of pseudo-vessels is quantified in terms of vascular density after digitisation and image analysis.

[2] = molecular target: T1, MMP-1 (interstitial collagenase) (Homo sapiens, UniProt P03956); experiment: Enzymatic Inhibition of Metalloproteinases (MMP-1); assay type: biochemical; conditions: 20 μM substrate, pH 7.7, 37° C., six hours; read-out: IC50 for the enzyme MMP-1
T1 sequence (P03956 100-469): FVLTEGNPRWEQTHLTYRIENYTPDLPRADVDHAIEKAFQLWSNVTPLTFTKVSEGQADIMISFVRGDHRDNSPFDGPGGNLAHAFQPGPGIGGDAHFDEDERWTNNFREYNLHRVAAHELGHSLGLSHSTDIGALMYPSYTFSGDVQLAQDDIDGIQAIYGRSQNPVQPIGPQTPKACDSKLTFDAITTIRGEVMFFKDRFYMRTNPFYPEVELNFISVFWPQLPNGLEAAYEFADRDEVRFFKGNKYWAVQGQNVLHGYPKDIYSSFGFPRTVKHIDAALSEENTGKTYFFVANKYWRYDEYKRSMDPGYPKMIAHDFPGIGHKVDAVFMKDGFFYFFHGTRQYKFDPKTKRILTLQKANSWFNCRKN
Procedure: (§1) Enzymatic Inhibition of Metalloproteinases
(§2) Four recombinant human enzymes MMP-1 (interstitial collagenase), MMP-2 (72 kDa gelatinase A), MMP-3 (stromelysin 1) and MMP-9 (92 kDa gelatinase B) are activated with APMA (4-aminophenylmercuric acetate).
(§3) The enzymatic tests are carried out using a peptido-mimetic substrate:
(§4) DnpProChaGlyCys(Me)HisAlaLys(Nma)NH2,
(§5) which is cleaved between the glycine and the cysteine to yield a fluorescent derivative (Anal. Biochem., 212, 58-64, 1993).
(§6) The reactions, carried out in a buffer of 50 mM Tris, 200 mM NaCl, 5 mM CaCl2, 0.1% Brij 35 at pH 7.7, are initiated using 20 μM substrate in a total volume of 100 μl at 37° C. The fluorescence obtained after six hours is read in a 96-well plate in a fluorimeter equipped with a combination of 340 nm and 400 nm filters for excitation and emission.

ovarian cancers = conditions: Becket et al., DDT 1996, 1 (1), 16; cited from earlier work
[3] = molecular target: T2, MMP-2 (72 kDa gelatinase A) (Homo sapiens, UniProt P08253); experiment: Enzymatic Inhibition of Metalloproteinases (MMP-2); assay type: biochemical; conditions: 20 μM substrate, pH 7.7, 37° C., six hours; read-out: IC50 for the enzyme MMP-2
T2 sequence (P08253 110-660): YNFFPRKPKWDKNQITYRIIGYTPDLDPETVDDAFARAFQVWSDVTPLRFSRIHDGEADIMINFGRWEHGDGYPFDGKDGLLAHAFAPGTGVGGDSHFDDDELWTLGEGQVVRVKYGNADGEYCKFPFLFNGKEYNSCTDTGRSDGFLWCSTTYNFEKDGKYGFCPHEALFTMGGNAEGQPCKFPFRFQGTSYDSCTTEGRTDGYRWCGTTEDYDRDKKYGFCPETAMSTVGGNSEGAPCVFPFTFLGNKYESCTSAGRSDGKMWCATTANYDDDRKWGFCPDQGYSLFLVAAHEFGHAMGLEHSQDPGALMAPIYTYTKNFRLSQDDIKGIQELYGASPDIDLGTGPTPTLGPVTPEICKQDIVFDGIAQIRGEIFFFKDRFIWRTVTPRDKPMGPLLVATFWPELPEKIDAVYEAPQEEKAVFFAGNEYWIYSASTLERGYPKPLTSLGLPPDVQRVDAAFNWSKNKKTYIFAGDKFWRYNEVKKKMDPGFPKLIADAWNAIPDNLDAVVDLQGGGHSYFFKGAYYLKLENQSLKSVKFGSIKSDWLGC
Procedure: as §1, §2, §3, §4, §5, §6

MMP-3 (stromelysin 1) = MMP-3 (stromelysin 1) (Homo sapiens, UniProt P08254); experiment: Enzymatic Inhibition of Metalloproteinases (MMP-3); assay type: biochemical; conditions: 20 μM substrate, pH 7.7, 37° C., six hours; read-out: IC50 for the enzyme MMP-3
Sequence of MMP-3 (stromelysin 1) (P08254 100-477): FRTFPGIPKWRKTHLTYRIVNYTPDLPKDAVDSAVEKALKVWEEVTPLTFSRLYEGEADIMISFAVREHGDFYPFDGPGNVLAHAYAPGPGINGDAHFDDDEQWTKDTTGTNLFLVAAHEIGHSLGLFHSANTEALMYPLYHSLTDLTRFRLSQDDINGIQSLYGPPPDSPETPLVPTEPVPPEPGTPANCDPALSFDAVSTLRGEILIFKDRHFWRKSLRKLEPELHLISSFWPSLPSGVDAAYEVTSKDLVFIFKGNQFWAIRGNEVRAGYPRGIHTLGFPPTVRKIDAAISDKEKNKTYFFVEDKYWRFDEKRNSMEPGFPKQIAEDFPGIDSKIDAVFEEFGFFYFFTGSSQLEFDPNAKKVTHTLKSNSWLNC
Procedure: as §1, §2, §3, §4, §5, §6

[4] = molecular target: MMP-9 (92 kDa gelatinase B) (Homo sapiens, UniProt P14780); experiment: Enzymatic Inhibition of Metalloproteinases (MMP-9); assay type: biochemical; conditions: 20 μM substrate, pH 7.7, 37° C., six hours; read-out: IC50 for the enzyme MMP-9
Sequence of MMP-9 (92 kDa gelatinase B) (P14780 107-707 limits assumed): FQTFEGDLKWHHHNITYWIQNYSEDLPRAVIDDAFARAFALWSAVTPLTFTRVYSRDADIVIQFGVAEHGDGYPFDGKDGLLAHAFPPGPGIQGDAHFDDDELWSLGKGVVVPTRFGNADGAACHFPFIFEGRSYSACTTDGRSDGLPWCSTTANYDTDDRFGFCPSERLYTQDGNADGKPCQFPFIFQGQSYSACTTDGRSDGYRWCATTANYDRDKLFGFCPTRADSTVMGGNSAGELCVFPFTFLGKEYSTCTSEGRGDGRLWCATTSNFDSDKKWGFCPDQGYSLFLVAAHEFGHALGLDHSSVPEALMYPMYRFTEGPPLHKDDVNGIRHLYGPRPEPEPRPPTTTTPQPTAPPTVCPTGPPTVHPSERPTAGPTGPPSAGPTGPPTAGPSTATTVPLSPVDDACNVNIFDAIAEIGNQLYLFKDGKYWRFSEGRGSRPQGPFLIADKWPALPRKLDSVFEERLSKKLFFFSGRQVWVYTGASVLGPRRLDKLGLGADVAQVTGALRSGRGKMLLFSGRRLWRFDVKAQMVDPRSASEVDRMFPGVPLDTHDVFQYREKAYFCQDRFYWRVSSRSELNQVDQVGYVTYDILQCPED
Procedure: as §1, §2, §3, §4, §5, §6

COc1ccc(S(=O)(=O)N2Cc3c(c4ccccc4n3CC(=O)N(C)CCN3CCOCC3)C[C@@H]2C(=O)NO)cc1 [Example 15, 2-[(4-Methoxyphenyl)sulphonyl]-9-[N-methyl-(2-morpholin-4-ylethylcarbamoyl)methyl]-2,3,4,9-tetrahydro-1H-β-carboline-(3R)-(N-hydroxy)carboxamide Hydrochloride]
inhibition at 1 µM [1]: 50 to 100%

COc1ccc(S(=O)(=O)N2Cc3c(c4ccccc4n3CC(=O)NCCN3CCOCC3)C[C@@H]2C(=O)NO)cc1 [Example 2, 2-[(4-Methoxyphenyl)sulphonyl]-9-[(2-morpholin-4-ylethylcarbamoyl)methyl]-2,3,4,9-tetrahydro-1H-β-carboline-(3R)-(N-hydroxy)carboxamide Acetate]
IC50 [2]: 32.6 nM
inhibition at 1 µM [1]: 50 to 100%

COc1ccc(S(=O)(=O)N2Cc3c(c4ccccc4n3CC(=O)NCCSCCCN3CCOCC3)C[C@@H]2C(=O)NO)cc1 [Example 13, 2-[(4-Methoxyphenyl)sulphonyl]-9-{[2-(3-morpholin-4-ylpropylsulphanyl)ethylcarbamoyl]methyl}-2,3,4,9-tetrahydro-1H-β-carboline-(3R)-(N-hydroxy)carboxamide Hydrochloride]
inhibition at 1 µM [1]: 50 to 100%

CNC(=O)C(Cc1ccccc1)NC(=O)C(CC(C)C)C(CSc1cccs1)C(=O)NO (centres unmarked) [BB94]
anti-tumour activity in clinical use (ovarian cancers): active in ovarian cancers

COc1ccc(S(=O)(=O)N2Cc3c(c4ccccc4n3CC(=O)NCCSCCN3CCOCC3)C[C@@H]2C(=O)NO)cc1 [Example 11, 2-[(4-Methoxyphenyl)sulphonyl]-9-{[2-(2-morpholin-4-ylethylsulphanyl)ethylcarbamoyl]methyl}-2,3,4,9-tetrahydro-1H-β-carboline-(3R)-(N-hydroxy)carboxamide Hydrochloride]
IC50 [3]: 1.6 nM
IC50 (MMP-3 (stromelysin 1)): 3.1 nM
IC50 [4]: 0.1 nM
